Data on two compounds can be found in BindingDB's records for doi:10.1016/j.bmcl.2009.05.029 (Institute, 2009).

A short description of this test: Inhibition of EphB2.

By EC50 is commonly meant the concentration that produces a half-maximal response. Higher therefore signals weaker potency.

Take `Cc1ccc(C(=O)Nc2cccc(C(F)(F)F)c2)cc1Nc1cncc(C(N)=O)c1` [5-[(2-methyl-5-{[3-(trifluoromethyl)phenyl]carbamoyl}phenyl)amino]pyridine-3-carboxamide]: the EC50 was 40 nM.

Compound `Cc1cn(-c2cc(NC(=O)c3ccc(C)c(NC(=O)c4ccno4)c3)cc(C(F)(F)F)c2)cn1` [N-(2-methyl-5-(3-(4-methyl-1H-imidazol-1-yl)-5-(trifluoromethyl)phenylcarbamoyl)phenyl)isoxazole-5-carboxamide] gave a 50% effective concentration (EC50) of 40 nM.
